# Laboratory results from ChEMBL document CHEMBL1201862, “PubChem BioAssay data set” (2004).
# Calls of active or inactive are those of the source.
# How the values were obtained:
# Aspartyl aminopeptidase = Aspartyl aminopeptidase (Plasmodium falciparum 3D7, UniProt Q8I2J3)
# Procathepsin L = Procathepsin L (Homo sapiens, UniProt P07711)
# Large T antigen = Large T antigen (Simian virus 40, UniProt P03070); assay type: functional, Betapolyomavirus macacae;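 note: Confirmatory-stage PubChem screen for compounds that inhibit SV40 T antigen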
# [1] = molecular target: T1, Mannose-6-phosphate isomerase (Homo sapiens, UniProt P34949); assay: inhibitors of human PMI, primary screen, biochemical, fluorescence intensity, coupled assay (AID 1209)
# T1 sequence (P34949 whole entry): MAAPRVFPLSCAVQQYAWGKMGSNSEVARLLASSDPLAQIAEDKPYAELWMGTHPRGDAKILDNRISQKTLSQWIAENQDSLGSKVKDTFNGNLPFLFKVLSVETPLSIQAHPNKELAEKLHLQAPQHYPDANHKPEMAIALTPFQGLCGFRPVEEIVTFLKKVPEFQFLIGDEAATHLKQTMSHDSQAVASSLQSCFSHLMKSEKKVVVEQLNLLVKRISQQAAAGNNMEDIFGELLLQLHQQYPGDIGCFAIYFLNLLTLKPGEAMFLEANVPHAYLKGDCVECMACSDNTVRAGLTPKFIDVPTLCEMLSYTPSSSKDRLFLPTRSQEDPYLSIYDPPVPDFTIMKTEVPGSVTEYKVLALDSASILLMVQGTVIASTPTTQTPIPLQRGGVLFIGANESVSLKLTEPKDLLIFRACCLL
# [2] = molecular target: Induced myeloid leukemia cell differentiation protein Mcl-1 (Homo sapiens, UniProt Q07820); assay: MCL1-BIM BH3 interaction inhibitors, dose response, biochemical, fluorescence polarization, BIM-BH3 peptide, 1536-well (AID 2217)
# Bcl-2-like protein 1 = Bcl-2-like protein 1 (Homo sapiens, UniProt Q07817); assay: BCL-XL inhibitors, dose response, selectivity assay for MCL1 inhibitor project, biochemical, fluorescence polarization, 1536-well (AID 2218)
# [3] = molecular target: T1, Mannose-6-phosphate isomerase; assay: human PMI inhibitors, high substrate, primary screen, biochemical, fluorescence intensity, high mannose 6-phosphate (AID 1220)
# [4] = molecular target: Dual specificity tyrosine-phosphorylation-regulated kinase 1A (Rattus norvegicus, UniProt Q63470); assay type: biochemical, Homo sapiens
# [5] = molecular target: T2, Rac GTPase-activating protein 1 (Homo sapiens, UniProt Q9H0H5); assay: MgcRacGAP GTPase-activating activity inhibitors, confirmation, biochemical, ADP Hunter fluorescence, primary and confirmatory (AID 624330); assay type: functional
# T2 sequence (Q9H0H5 whole entry): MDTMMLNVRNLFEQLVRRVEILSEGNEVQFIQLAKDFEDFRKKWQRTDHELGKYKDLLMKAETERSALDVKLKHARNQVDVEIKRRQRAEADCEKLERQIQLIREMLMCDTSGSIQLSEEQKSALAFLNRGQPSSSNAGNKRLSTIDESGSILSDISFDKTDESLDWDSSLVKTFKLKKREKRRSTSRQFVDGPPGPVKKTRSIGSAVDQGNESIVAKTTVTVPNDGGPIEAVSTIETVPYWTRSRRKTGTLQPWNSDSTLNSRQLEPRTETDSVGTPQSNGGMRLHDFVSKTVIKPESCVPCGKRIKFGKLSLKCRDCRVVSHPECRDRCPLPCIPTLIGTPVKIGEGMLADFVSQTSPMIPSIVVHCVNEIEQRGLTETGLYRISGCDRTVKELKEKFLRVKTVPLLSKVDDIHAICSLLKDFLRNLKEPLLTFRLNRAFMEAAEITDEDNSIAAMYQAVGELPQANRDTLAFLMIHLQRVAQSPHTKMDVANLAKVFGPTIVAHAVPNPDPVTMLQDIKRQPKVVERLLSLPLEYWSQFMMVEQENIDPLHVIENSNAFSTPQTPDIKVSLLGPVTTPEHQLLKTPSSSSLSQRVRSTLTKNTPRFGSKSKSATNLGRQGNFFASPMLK
# [6] = molecular target: T3, Histone-lysine N-methyltransferase NSD2 (Homo sapiens, UniProt O96028); assay type: biochemical
# T3 sequence (O96028 whole entry): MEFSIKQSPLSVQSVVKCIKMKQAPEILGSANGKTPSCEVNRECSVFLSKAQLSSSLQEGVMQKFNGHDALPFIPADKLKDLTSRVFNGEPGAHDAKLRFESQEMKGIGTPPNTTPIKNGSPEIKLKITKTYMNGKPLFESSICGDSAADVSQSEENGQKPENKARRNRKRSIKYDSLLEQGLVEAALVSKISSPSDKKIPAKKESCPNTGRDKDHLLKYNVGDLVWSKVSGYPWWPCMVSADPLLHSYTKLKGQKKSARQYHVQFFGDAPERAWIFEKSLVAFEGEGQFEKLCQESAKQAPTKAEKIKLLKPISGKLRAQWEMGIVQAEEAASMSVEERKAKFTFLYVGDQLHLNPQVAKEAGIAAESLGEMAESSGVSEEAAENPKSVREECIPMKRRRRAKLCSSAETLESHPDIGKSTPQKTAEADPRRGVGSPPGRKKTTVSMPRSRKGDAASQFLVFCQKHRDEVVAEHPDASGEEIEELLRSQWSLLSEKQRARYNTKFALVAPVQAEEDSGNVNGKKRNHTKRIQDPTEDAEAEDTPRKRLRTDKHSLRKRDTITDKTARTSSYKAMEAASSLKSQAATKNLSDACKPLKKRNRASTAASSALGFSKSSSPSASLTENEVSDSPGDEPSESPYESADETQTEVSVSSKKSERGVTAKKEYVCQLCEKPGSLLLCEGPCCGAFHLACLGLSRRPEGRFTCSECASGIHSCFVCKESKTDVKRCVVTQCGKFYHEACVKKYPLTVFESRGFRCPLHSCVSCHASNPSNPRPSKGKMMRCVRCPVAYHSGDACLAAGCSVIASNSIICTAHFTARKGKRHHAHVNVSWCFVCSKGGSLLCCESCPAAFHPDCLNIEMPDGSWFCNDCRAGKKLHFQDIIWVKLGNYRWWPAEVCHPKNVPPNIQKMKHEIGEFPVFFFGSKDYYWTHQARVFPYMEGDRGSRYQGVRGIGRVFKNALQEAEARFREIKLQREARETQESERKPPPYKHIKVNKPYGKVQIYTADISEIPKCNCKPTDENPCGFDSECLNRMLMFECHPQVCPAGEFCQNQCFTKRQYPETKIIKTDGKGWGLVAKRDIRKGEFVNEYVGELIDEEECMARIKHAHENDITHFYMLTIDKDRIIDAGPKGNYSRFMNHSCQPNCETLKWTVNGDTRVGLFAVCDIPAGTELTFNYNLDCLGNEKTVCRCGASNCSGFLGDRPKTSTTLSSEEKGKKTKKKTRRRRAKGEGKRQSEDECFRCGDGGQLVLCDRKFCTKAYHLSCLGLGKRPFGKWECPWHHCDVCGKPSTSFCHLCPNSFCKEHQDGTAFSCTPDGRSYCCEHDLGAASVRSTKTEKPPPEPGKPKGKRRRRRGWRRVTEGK
# Interleukin-8 = Interleukin-8 (Homo sapiens, UniProt P10145); assay: SAR analysis of tumor necrosis factor alpha (TNF-alpha) induced IL-8 secretion in MCF-7/NOD1 cells. [Related pubchem assays (depositor defined):AID1575, AID2250, AID2260]; assay type: functional, cell-based
# [7] = molecular target: Neuropeptide Y receptor type 2 (Homo sapiens, UniProt P49146); assay: Fluorescence-based counterscreen for agonists of NPY-Y1: cell-based high-throughput dose response assay for agonists of NPY-Y2.; assay type: functional
# HEK293 = assay: Fluorescence-based counterscreen for potentiators or agonists of NPY-Y1: cell-based high-throughput dose response assay for inhibitors of cyclic nucleotide gated ion channel (CNGC) activity. In this assay, the parental HEK293 cell line transfected with a cyclic-nucleotide gated ion channel (CNGC)-based cAMP sensor is used to measure inhibition of isoproterenol-induced CNGC …; assay type: functional; settings: Homo sapiens
# [8] = molecular target: Neuropeptide Y receptor type 1 (Homo sapiens, UniProt P25929); assay: Fluorescence-based dose response cell-based high-throughput screening assay for agonists of NPY-Y1. [Related pubchem assays: 1697 (Screening assay (NPY-Y1 agonists).), 1359 (Screening assay (NPY-Y2 potentiators or agonists).), 1304 (Screening assay (NPY-Y1 potentiators or agonists).), 1704 (Screening assay (CNGC inhibitors).), 1791 (Summary AID.)]; assay type: functional
# Vero [9] = assay: cells; assay type: functional, cell-based; settings: Chlorocebus sabaeus
# Vero [10] = assay: cells; assay type: functional; settings: Chlorocebus sabaeus
# [11] = molecular target: T4, Long-chain-fatty-acid--AMP ligase FadD28 (Mycobacterium tuberculosis, UniProt P9WQ59); assay: Fluorescence polarization aasay to screen for inhibitors that compete for the binding of FadD28 to a bisubstrate Measured in Biochemical System Using Plate Reader - 2147-01_Inhibitor_Dose_CherryPick_Activity.; assay type: functional, Mycobacterium tuberculosis H37Rv
# T4 sequence (P9WQ59 whole entry): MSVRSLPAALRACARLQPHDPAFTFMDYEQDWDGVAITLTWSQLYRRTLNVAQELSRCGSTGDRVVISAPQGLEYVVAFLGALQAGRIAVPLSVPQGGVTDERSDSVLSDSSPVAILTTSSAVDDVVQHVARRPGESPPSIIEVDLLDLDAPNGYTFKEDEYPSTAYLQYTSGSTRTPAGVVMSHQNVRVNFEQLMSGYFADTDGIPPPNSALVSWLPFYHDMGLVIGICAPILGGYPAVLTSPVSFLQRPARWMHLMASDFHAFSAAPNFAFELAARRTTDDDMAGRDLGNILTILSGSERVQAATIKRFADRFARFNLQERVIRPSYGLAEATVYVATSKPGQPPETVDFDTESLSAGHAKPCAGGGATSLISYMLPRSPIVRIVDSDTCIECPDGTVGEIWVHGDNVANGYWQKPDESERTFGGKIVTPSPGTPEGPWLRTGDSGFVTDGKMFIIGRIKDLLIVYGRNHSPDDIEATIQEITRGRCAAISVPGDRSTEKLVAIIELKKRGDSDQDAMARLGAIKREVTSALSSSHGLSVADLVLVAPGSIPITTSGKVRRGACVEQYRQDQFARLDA
# [12] = HepG2 cell cytotoxicity, dose response, cytotoxicity control, ATP luminescence, cherry-pick, activator set 2 (AID 1053143); assay type: functional, cell-based
# Sequence of Interleukin-8 (P10145 whole entry): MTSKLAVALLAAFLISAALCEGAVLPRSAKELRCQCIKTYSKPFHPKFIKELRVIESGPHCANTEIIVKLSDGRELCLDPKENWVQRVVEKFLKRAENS
# Sequence of Procathepsin L (P07711 whole entry): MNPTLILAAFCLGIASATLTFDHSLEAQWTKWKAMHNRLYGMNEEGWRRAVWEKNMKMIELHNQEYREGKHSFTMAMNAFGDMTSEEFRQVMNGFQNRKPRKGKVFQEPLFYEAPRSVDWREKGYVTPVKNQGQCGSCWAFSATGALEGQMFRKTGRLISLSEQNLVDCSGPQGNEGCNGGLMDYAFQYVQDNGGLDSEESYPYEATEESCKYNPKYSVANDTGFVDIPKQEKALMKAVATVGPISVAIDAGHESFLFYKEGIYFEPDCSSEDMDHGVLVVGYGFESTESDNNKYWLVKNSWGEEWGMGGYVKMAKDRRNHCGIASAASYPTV
# Sequence of Neuropeptide Y receptor type 1 (P25929 whole entry): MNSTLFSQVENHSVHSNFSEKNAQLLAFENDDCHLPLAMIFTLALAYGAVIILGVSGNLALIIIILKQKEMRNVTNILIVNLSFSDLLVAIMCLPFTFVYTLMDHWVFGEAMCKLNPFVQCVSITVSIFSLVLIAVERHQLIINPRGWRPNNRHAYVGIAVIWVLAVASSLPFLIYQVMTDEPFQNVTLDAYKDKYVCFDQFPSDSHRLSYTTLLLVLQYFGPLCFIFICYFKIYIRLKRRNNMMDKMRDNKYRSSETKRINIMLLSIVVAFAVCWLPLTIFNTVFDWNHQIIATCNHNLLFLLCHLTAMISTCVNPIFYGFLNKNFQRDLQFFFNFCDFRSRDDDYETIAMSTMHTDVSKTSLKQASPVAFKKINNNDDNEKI
# Sequence of Bcl-2-like protein 1 (Q07817 whole entry): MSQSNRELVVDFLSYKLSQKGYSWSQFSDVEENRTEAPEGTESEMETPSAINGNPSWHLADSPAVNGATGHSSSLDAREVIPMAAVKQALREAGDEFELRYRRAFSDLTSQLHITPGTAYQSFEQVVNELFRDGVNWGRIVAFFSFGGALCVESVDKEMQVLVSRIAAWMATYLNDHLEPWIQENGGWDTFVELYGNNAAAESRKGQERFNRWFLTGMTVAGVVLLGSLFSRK
# Sequence of Large T antigen (P03070 whole entry): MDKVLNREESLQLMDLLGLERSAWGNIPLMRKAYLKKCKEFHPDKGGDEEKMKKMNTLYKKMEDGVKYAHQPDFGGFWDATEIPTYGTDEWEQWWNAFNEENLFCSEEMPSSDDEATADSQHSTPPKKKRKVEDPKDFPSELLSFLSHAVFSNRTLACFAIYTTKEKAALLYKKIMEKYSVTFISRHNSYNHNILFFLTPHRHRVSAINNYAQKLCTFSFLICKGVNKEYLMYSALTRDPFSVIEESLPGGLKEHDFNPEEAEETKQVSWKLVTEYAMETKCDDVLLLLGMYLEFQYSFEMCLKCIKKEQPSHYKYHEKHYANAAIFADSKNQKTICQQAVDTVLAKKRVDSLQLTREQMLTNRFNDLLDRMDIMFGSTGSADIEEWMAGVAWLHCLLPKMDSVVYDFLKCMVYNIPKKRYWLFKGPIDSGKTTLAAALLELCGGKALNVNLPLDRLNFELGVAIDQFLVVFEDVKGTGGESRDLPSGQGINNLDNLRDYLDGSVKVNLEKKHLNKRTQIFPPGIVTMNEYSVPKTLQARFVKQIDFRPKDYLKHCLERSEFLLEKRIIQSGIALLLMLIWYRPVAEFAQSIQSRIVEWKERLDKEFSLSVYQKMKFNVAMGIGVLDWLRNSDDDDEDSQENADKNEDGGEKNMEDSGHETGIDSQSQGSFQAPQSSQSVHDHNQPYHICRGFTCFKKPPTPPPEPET
# Sequence of Induced myeloid leukemia cell differentiation protein Mcl-1 (Q07820 whole entry): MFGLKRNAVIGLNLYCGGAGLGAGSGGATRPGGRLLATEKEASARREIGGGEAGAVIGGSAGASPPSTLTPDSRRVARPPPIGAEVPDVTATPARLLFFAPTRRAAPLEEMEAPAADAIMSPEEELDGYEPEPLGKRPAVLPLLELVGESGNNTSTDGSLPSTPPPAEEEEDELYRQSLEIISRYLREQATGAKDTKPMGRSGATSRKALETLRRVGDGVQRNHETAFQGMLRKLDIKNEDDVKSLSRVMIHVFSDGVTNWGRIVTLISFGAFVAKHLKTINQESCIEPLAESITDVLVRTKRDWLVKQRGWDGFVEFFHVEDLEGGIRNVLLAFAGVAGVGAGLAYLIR
# Sequence of Neuropeptide Y receptor type 2 (P49146 whole entry): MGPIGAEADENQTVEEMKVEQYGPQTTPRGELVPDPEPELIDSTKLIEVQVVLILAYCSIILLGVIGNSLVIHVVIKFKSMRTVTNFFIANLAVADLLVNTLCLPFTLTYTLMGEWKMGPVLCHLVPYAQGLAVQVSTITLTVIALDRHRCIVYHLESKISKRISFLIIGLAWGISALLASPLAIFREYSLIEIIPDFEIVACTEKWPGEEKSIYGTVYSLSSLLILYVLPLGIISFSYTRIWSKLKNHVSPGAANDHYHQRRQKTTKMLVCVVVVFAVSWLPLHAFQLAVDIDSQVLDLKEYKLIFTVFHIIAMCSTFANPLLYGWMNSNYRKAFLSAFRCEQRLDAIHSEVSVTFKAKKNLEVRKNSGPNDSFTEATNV
# Sequence of Aspartyl aminopeptidase (Q8I2J3 whole entry): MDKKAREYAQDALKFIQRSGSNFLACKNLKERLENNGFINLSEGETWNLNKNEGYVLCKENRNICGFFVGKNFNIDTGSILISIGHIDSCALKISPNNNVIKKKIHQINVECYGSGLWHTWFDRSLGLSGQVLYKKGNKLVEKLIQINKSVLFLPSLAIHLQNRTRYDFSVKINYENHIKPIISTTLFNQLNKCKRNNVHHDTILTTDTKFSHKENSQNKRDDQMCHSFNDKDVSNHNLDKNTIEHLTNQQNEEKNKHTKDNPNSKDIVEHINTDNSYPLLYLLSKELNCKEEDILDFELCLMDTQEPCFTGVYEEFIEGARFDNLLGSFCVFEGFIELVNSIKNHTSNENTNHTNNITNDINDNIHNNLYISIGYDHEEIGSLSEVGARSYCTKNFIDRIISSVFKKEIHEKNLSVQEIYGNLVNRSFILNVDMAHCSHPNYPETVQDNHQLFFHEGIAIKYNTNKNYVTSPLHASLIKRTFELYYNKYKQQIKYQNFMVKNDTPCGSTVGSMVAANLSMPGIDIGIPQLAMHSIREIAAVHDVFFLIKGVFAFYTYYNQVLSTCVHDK
structure (smiles),measurement,setting,value
Oc1ccc(C2=Nn3c(nnc3-c3ccco3)SC2)cc1O,IC50,Aspartyl aminopeptidase,1.84 µM (active)
same,IC50,Procathepsin L,> 59.6 µM (not active)
same,IC50,Large T antigen,3.26 µM (active)
same,IC50,[1],> 50 µM (not active)
same,IC50,[2],6.16 µM (active)
same,IC50,Bcl-2-like protein 1,68.7 µM (not active)
same,IC50,[3],> 50 µM (not active)
same,AC50,[4],4.01 µM (active)
same,IC50,[5],12.2 µM (active)
same,AC50,[6],6.4 µM (active)
COc1ccc(S(=O)(=O)n2c(N)nc3ccccc32)cc1,IC50,Interleukin-8,> 5 µM (inactive)
Cn1cc([N+](=O)[O-])c(C(=O)Nc2ccc(C3CCCCC3)cc2)n1,EC50,[7],12.1 µM (not active)
same,IC50,HEK293,8.17 µM (active)
same,EC50,[8],9.71 µM (active)
same,IC50,Vero [9],9.92 µM (active)
same,CC50,Vero [10],> 25 µM (active)
same,AC50,[11],> 100 µM (inactive)
same,AC50,[12],18.5 µM (active)
